What was measured:
SP53 = test: Proliferation MTT assay, 72 h; type: cell-based; conditions: SP53 (MCL), 72 h exposure
Protocol: (§1) Thirty-nine cell lines derived from activated B cell-like (ABC) (n=3) and germinal center B Cell (GCB) (n=12) diffuse large B cell lymphoma (DLBCL), mantle cell lymphoma (MCL) (n=9), chronic lymphocytic leukemia (CLL) (n=2), Hodgkin lymphoma (HL) (n=4), cutaneous T cell lymphoma (CTCL) (n=3), peripheral T cell lymphoma (PTCL) (n=1), anaplastic large T cell lymphoma (ALCL) (n=4), acute T cell leukemia (ATCL) (n=1) were cultured according to the recommended conditions. All media were supplemented with fetal bovine serum (10%), Penicillin-Streptomycin-Neomycin (˜5,000 units penicillin, 5 mg streptomycin and 10 mg neomycin/mL, Sigma) and L-glutamine (1%).
(§2) EG-011 was dissolved in dimethyl sulphoxide (DMSO) to obtain a stock concentration of 10 mM for in vitro experiments. EG-011 was dissolved in 25% hydroxypropyl beta cyclodextrin (HP-β-CD) in water and adjusted at pH 6.0 using NaOH (0.1 N) and HCl (0.1 N) for in vivo experiments. Application volume was 4.5 mL/kg (100 mg in 4.5 mL), and mice received 200 microliters (corresponding to 200 mg/kg) though intra peritoneal i.p. injection, once per day and five days per week.
(§3) Cells were seeded in 96-well plates (non-tissue culture treated) at a density of 10,000 cells for all cell lines. Each compound was dissolved in dimethyl sulphoxide (DMSO). For treatment of cells, compounds were serially diluted in the appropriate tissue culture medium, at a range of 20 mcM-78 nM following a 1:2 dilution factor and added to cells (in three replicates). Cells were incubated for 72 hours at 37° C., 5% CO2. DMSO alone was added to negative control (untreated) cells. Wells containing medium only were included on each plate and served as blanks for absorbance readings. MTT (Sigma-Aldrich Chemie GmbH, Buchs, Switzerland) was prepared as a 5 mg/ml stock in PBS and filter-sterilized. MTT solution (22 μL) was added to each well and tissue culture plates were incubated at 37° C. for 4 hours. Cells were then lysed with 25% SDS lysis buffer and absorbance was read at 570 nm using an AD340 plate reader (Beckman Coulter International SA, Switzerland). Absorbance values were expressed in percentage of proliferating cells in comparison with control cells (control corresponds to 100%).

TOLEDO = test: Proliferation MTT assay, 72 h; type: cell-based; conditions: Homo sapiens, TOLEDO (GCB-DLBCL), 72 h exposure
Protocol: as §1, §2, §3

SU-DHL-16 = test: Proliferation MTT assay, 72 h; type: cell-based; conditions: Homo sapiens, SU-DHL-16 (GCB-DLBCL), 72 h exposure
Protocol: as §1, §2, §3

AM-HLH = test: Proliferation MTT assay, 72 h; type: cell-based; conditions: AM-HLH (HL), 72 h exposure
Protocol: as §1, §2, §3

JURKAT = test: Proliferation MTT assay, 72 h; type: cell-based; conditions: Homo sapiens, JURKAT (T Cell Leukemia), 72 h exposure
Protocol: as §1, §2, §3

L-428 = test: Proliferation MTT assay, 72 h; type: cell-based; conditions: Homo sapiens, L-428 (HL), 72 h exposure
Protocol: as §1, §2, §3

GRANTA519 = test: Proliferation MTT assay, 72 h; type: cell-based; conditions: Homo sapiens, Granta-519, GRANTA519 (MCL), 72 h exposure
Protocol: as §1, §2, §3

SU-DHL-2 = test: Proliferation MTT assay, 72 h; type: cell-based; conditions: Homo sapiens, SU-DHL-2 (ABC-DLBCL), 72 h exposure
Protocol: as §1, §2, §3

PCL-12 = test: Proliferation MTT assay, 72 h; type: cell-based; conditions: PCL-12 (CLL), 72 h exposure
Protocol: as §1, §2, §3

L-1236 = test: Proliferation MTT assay, 72 h; type: cell-based; conditions: L-1236 (HL), 72 h exposure
Protocol: as §1, §2, §3

OCI-LY-1 = test: Proliferation MTT assay, 72 h; type: cell-based; conditions: Homo sapiens, OCI-Ly1, OCI-LY-1 (GCB-DLBCL), 72 h exposure
Protocol: as §1, §2, §3

HUT-78 = test: Proliferation MTT assay, 72 h; type: cell-based; conditions: Homo sapiens, HuT78, HUT-78 (T Cell - CTCL), 72 h exposure
Protocol: as §1, §2, §3

RCK8 = test: Proliferation MTT assay, 72 h; type: cell-based; conditions: Homo sapiens, RCK8 (GCB-DLBCL), 72 h exposure
Protocol: as §1, §2, §3

JEKO1 = test: Proliferation MTT assay, 72 h; type: cell-based; conditions: Homo sapiens, JeKo-1, JEKO1 (MCL), 72 h exposure
Protocol: as §1, §2, §3

HH = test: Proliferation MTT assay, 72 h; type: cell-based; conditions: Homo sapiens, HH (T Cell - CTCL), 72 h exposure
Protocol: as §1, §2, §3

SP49 = test: Proliferation MTT assay, 72 h; type: cell-based; conditions: SP49 (MCL), 72 h exposure
Protocol: as §1, §2, §3

KM-H2 = test: Proliferation MTT assay, 72 h; type: cell-based; conditions: Homo sapiens, KM-H2 (HL), 72 h exposure
Protocol: as §1, §2, §3

OCI-LY-10 = test: Proliferation MTT assay, 72 h; type: cell-based; conditions: Homo sapiens, OCI-Ly10, OCI-LY-10 (ABC-DLBCL), 72 h exposure
Protocol: as §1, §2, §3

MAC-1 = test: Proliferation MTT assay, 72 h; type: cell-based; conditions: MAC-1 (T Cell - ALCL), 72 h exposure
Protocol: as §1, §2, §3

SU-DHL-10 = test: Proliferation MTT assay, 72 h; type: cell-based; conditions: Homo sapiens, SU-DHL10, SU-DHL-10 (GCB-DLBCL), 72 h exposure
Protocol: as §1, §2, §3

UPN1 = test: Proliferation MTT assay, 72 h; type: cell-based; conditions: UPN1 (MCL), 72 h exposure
Protocol: as §1, §2, §3

Karpas-422 = test: Proliferation MTT assay, 72 h; type: cell-based; conditions: Homo sapiens, Karpas-422 (GCB-DLBCL), 72 h exposure
Protocol: as §1, §2, §3

OCI-LY-19 = test: Proliferation MTT assay, 72 h; type: cell-based; conditions: Homo sapiens, OCI-LY19, OCI-LY-19 (GCB-DLBCL), 72 h exposure
Protocol: as §1, §2, §3

MEC1 = test: Proliferation MTT assay, 72 h; type: cell-based; conditions: Homo sapiens, MEC1 (CLL), 72 h exposure
Protocol: as §1, §2, §3

MAVER1 = test: Proliferation MTT assay, 72 h; type: cell-based; conditions: Homo sapiens, MAVER1 (MCL), 72 h exposure
Protocol: as §1, §2, §3

REC1 = test: Propidium iodide cell cycle staining; type: cell-based, human; conditions: REC1, 500 and 2000 nM, 72 h
Protocol: Lymphoma cells (10^6 per condition) were fixed in cold 70% ethanol (for at least 30 minutes at 4° C.), added dropwise to the cell pellet while vortexing. Cells were washed ×2 in PBS and Spin at 2000 rpm; supernatant was discarded and cells suspended in PBS (0.5 mL) and treated with Ribonuclease (50 μl of 100 μg/mL RNase). Then 200 μl of propidium iodide (50 μg/ml) were added and data acquisition was performed by using BD FACS-Canto II.

Structure (SMILES): C=CC(=O)N1CCCC(n2c(=O)c3ncccc3n(Cc3ccc(Oc4ccccc4)cc3)c2=O)C1 (centres unmarked) [EG-011, 1-[(4-phenoxyphenyl)methyl]-3-(1-prop-2-enoyl-3-piperidyl)pyrido[3,2-d]pyrimidine-2,4-dione]
- IC50 (SP53): 1000 nM
- IC50 (TOLEDO): 600 nM
- IC50 (SU-DHL-16): 1500 nM
- IC50 (AM-HLH): 18 µM
- IC50 (JURKAT): 15 µM
- IC50 (L-428): 20 µM
- IC50 (GRANTA519): 250 nM
- IC50 (SU-DHL-2): 20 µM
- IC50 (PCL-12): 7 µM
- IC50 (L-1236): 9 µM
- IC50 (OCI-LY-1): 250 nM
- IC50 (HUT-78): 1500 nM
- IC50 (RCK8): 10 µM
- IC50 (JEKO1): 4 µM
- IC50 (HH): 15 µM
- IC50 (SP49): 8 µM
- IC50 (KM-H2): 2500 nM
- IC50 (OCI-LY-10): 5 µM
- IC50 (MAC-1): 150 nM
- IC50 (SU-DHL-10): 300 nM
- IC50 (UPN1): 120 nM
- IC50 (Karpas-422): 1500 nM
- IC50 (OCI-LY-19): 150 nM
- IC50 (MEC1): 8 µM
- IC50 (MAVER1): 20 µM
- cells in the sub-GO phase (dead cells) (REC1): dose dependent increase of the cells in the sub-GO phase

Source: patent US11471459B2, “Compounds with enhanced anti-tumor effects” (FONDAZIONE PER L'ISTITUTO ONCOLOGICO DI RICERCA (IOR), priority 2018, dated 2022)
